Data published in PMC8668966, “Short-chain aurachin D derivatives are selective inhibitors of E. coli cytochrome bd-I and bd-II oxidases” (Scientific Reports, 2021).
Converted amounts (≈) assume the structure as drawn. Like-named read-outs stand apart in the source and are kept apart here.

Tests used:
[1] = biological target: T1, cytochrome bd-I (Escherichia coli, UniProt P0ABJ9); assay: Oxygen reductase activity assay (Clark-type electrode) with purified cytochrome bd-I; format: biochemical, E. coli; details: for Rest activity in % of control activity bd-I / remaining activity at 250 µM: compound 250 µM, 200 µM ubiquinone-1, 5 mM dithiothreitol, 30 nM enzyme, RT, 100% = DMSO, mean ± S.E.M. (n=3); for remaining activity at 250 µM: read-out: Rest activity in % of control activity bd-I; for Ki: final enzyme concentration 30 nM, inhibitor concentration at 50% residual oxygen reductase activity (EC50 of DoseResp fit), read-out: Ki^app bd-I
T1 construct: made in house; host or cells: E. coli C43 (DE3) Δ bo3 (CLY)
T1 sequence (P0ABJ9 whole entry): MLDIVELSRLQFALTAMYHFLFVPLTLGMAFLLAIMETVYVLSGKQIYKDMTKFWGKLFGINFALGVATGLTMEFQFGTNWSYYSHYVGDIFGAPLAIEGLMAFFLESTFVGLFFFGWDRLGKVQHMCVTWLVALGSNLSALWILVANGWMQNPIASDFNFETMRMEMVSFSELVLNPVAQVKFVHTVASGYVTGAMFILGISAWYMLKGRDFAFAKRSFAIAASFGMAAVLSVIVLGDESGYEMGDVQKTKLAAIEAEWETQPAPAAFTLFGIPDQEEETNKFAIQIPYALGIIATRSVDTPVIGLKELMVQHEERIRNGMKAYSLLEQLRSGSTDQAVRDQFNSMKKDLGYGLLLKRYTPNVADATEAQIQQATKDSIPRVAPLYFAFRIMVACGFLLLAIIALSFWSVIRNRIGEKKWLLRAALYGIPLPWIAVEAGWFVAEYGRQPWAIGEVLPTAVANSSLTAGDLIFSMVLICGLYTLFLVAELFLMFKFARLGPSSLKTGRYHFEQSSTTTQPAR
T1 sequence (P0ABK2 whole entry, further chain): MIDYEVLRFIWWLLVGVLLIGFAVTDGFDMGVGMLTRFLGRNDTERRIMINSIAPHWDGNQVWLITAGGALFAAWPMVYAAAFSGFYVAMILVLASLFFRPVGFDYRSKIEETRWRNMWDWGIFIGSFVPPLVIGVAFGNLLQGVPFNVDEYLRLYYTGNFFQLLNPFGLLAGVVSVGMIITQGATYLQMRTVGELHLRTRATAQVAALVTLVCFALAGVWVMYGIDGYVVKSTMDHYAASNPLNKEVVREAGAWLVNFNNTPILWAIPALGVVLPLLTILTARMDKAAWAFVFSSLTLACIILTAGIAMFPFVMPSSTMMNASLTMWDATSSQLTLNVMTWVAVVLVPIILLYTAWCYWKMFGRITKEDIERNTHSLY
T1 sequence (P56100 whole entry, further chain): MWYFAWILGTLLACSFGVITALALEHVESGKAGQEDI
Description: (§1) To determine inhibition of our test set compounds and to assess the selectivity for bd-type oxidases we tested the inhibitory effect via […] determination of oxygen reduction using purified protein samples and ubiquinol-1 as electron donor. In this set-up, we kept the compound at a high molar excess compared to the protein. Figures 3 and 4 illustrate the screening results for cytochromes bd-I, bd-II and bo3, respectively. A comparative overview of all compounds is given in SI Table S1. […]. […] Among these compounds, AC2-11 has the strongest inhibitory effect on all three oxidases. […]. For AurC and its analogues it was reported that replacement of N–OH with an N–H group decreases the inhibitory potential only for cytochrome bo3, keeping a strong inhibitory effect on cytochrome bd[17]. Correspondingly, we observed a clear inhibition of cytochromes bd-I and bd-II with all AurD-type compounds. Regarding the long-chain derivatives AC4-11, AC2-11 and AD3-11, inhibition of cytochromes bd-I and bd-II and bo3 highlight the importance of the residue at the nitrogen group at position 1 for enzyme selectivity. […]. […] Regarding the cyclic derivatives, 7-MTHA causes only a minor inhibition of cytochrome bd-I. This effect could be due to the methoxy group in position 7 that introduces an additional polarity to the molecule. Steric hindrance as a consequence of the third ring structure is less likely, because AD5-cyclo is bulkier and reduces activity < 10% of cytochromes bd-I and bd-II.
(§2) Oxygen reductase activity was measured as oxygen consumption rate of purified protein by OX-MR Clark-type oxygen electrode linked to a PA 2000 picoammeter and to the ADC-216 AD-converter. Data recording with SensorTrace Basic 2.1 software (all Unisense, Denmark). Measurements were performed at RT in stirred 2 ml—glass vials with a total reaction volume of 600 µl. Oxygen consumption was initiated by adding 30 nM (bd-I, bo3) or 120 nM (bd-II) of the respective enzyme to the equilibrated mixture containing 20 mM NaPi (pH 8.0), 50 mM NaCl, 0.02% DDM, 5 mM Dithiothreitol (DTT) and 200 µM Ubiquinone-1 (2,3-Dimethoxy-5-methyl-6-(3-methyl-2-buten-1-yl)-1,4-benzoquinone). A 10 min equilibration period was implemented prior to enzyme addition. Inhibition experiments were performed with 250 µM of the respective compound from 20 mM stock solution in DMSO before equilibration. Data analysis and visualization via Origin Lab Pro 9.5 (Additive GmbH, Germany) Data analysis included an unpaired, two-sided t-test of two samples to check that given residual activities were sufficiently different between proteins (at significance levels p < 0.05, 0.01 or 0.001). HQNO (2-heptyl-4-quinolinol 1-oxide) was purchased from biomol GmbH, Hamburg. […]. The Ki^app value was adopted as the EC50 from the sigmoidal DoseRespFit. Further information can be found in Supporting Information Figures S2 to S5.
Dose response curves were created to rank the compounds due to their inhibition potency. Inhibitors were titrated in presence of 30nM bd-I. From Clark-type electrode monitored oxygen consumption, resulting oxygen reduction activity with 200µM Q1, reduced with 2mM DTT, was calculated as turnover in e^-/s. Turnover values were normalized, followed by a curve fitting with DoseResp Fit (1) in Origin LabPro9.5 (Additive GmbH, Germany). Data points are mean of minimum three independent measurements ± S.E.M.

[2] = biological target: T2, cytochrome bo3 (Escherichia coli, UniProt P0ABI8); assay: Oxygen reductase activity assay (Clark-type electrode) with purified cytochrome bo3; format: biochemical, E. coli; details: for Rest activity in % of control activity bo3 / remaining activity at 250 µM: compound 250 µM, 200 µM ubiquinone-1, 5 mM dithiothreitol, 30 nM enzyme, RT, 100% = DMSO, mean ± S.E.M. (n=3); for remaining activity at 250 µM: read-out: Rest activity in % of control activity bo3; for Ki: final enzyme concentration 30 nM, EC50 of DoseResp fit, read-out: Ki^app bo3
T2 construct: made in house; host or cells: E. coli strain GO195 with pIRHisA
T2 sequence (P0ABJ3 whole entry): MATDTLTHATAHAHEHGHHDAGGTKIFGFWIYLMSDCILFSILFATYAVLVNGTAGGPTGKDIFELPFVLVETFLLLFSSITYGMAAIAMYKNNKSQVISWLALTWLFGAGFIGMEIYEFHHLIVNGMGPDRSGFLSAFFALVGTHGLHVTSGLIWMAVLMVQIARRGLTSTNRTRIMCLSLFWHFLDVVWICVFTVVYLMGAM
T2 sequence (P0ABJ1 25-315, further chain): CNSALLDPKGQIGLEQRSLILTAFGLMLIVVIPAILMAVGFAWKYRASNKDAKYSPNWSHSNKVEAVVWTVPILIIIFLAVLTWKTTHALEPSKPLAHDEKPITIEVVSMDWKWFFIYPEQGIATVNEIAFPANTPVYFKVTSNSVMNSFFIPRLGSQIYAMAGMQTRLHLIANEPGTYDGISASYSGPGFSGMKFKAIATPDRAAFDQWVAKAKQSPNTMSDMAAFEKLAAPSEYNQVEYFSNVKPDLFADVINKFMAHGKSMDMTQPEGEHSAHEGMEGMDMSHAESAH
T2 sequence (P0ABJ6 whole entry, further chain): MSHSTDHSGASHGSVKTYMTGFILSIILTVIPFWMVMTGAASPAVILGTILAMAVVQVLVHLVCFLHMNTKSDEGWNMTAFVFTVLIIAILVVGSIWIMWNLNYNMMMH
T2 sequence (P0ABI8 whole entry): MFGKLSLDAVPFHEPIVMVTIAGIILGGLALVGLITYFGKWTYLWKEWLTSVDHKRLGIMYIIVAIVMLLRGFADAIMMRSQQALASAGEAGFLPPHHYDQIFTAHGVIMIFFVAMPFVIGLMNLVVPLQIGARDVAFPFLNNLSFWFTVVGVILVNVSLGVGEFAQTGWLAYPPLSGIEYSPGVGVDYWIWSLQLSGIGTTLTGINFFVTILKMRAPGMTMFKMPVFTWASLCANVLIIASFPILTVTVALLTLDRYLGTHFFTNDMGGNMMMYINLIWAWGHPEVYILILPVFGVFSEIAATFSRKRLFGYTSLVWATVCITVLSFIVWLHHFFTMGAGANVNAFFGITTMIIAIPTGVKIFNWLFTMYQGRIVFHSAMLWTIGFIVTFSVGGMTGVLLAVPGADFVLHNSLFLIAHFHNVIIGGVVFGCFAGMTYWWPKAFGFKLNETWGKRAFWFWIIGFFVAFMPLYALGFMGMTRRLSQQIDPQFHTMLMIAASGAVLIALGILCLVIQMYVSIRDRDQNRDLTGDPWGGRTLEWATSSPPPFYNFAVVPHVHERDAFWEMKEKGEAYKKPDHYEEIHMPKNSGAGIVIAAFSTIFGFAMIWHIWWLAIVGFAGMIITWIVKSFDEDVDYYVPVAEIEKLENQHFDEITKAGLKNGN
Description: as §1, §2

[3] = biological target: T3, cytochrome bd-II (Escherichia coli, UniProt P26459); assay: Oxygen reductase activity assay (Clark-type electrode) with purified cytochrome bd-II; format: biochemical, E. coli; details: compound 250 µM, 200 µM ubiquinone-1, 5 mM dithiothreitol, 120 nM enzyme, RT, 100% = DMSO, mean ± S.E.M. (n=3); for remaining activity at 250 µM: read-out: Rest activity in % of control activity bd-II
T3 construct: made in house; host or cells: E. coli C43 (DE3) Δ bo3 (CLY)
T3 sequence (P26459 whole entry): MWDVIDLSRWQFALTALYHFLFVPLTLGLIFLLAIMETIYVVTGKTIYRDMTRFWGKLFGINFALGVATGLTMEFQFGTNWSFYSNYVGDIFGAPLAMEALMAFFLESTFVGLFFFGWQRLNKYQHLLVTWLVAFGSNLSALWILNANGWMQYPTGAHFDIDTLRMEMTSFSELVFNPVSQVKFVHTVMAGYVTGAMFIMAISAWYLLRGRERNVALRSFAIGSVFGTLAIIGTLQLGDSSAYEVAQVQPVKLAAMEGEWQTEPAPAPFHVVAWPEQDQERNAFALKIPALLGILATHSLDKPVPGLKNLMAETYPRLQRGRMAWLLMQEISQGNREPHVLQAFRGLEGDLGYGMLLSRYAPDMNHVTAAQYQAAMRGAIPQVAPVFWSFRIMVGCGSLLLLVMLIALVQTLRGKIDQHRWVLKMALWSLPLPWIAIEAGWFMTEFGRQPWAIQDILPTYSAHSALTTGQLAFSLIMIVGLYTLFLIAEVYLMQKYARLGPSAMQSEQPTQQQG
T3 sequence (P24244 whole entry, further chain): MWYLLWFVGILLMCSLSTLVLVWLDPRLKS
T3 sequence (P26458 whole entry, further chain): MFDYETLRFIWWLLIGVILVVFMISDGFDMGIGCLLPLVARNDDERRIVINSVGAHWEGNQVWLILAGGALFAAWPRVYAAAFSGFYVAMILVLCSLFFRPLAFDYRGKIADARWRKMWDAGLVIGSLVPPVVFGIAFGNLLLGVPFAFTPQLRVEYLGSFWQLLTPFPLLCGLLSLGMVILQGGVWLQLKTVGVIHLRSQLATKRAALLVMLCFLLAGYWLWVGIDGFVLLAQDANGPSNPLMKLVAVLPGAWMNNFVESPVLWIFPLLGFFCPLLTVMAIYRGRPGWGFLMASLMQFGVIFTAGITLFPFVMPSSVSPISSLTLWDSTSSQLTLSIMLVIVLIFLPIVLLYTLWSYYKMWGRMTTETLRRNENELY
Description: as §1, §2

[4] = biological target: cytochrome bd; set-up: method as in PMID 9880809; details: values in brackets, determined spectrophotometrically; read-out: Ki^app bd-I (previous data) (converted); cited from earlier work
[5] = biological target: T2, cytochrome bo3; details: values in brackets, determined spectrophotometrically; read-out: Ki^app bo3 (previous data) (converted); cited from earlier work
[6] = tested on: cytochrome bc1 complex (complex III) from beef heart mitochondria; set-up: method as in PMID 8206232; details: isolated complex III; cited from earlier work
[7] = tested on: B. subtilis; set-up: method as in PMID 3106289; details: cited from earlier work
[8] = tested on: human U-2 OS osteosarcoma cells; set-up: method as in PMID 23946854; details: upon treatment; cited from earlier work
[9] = tested on: multidrug efflux transporter deficient TolC strain of Escherichia coli; details: cited from earlier work

For “2-(2-Heptyl)-3-methyl-4(1H)-quinolone [AD7-1]”, the “Rest activity in % of control activity bd-I” value [1] was 4.90 ± 1.5%, the “Rest activity in % of control activity bd-I” value ([1]; listed as AD7-1*) was 3.46 ± 0.17% and the “Rest activity in % of control activity bo3” value [2] was 63.6 ± 1.3%. The “Rest activity in % of control activity bo3” value ([2]; listed as AD7-1*) was 47.0 ± 1.9%, the “Rest activity in % of control activity bd-II” value [3] was 1.18 ± 0.12% and the “Rest activity in % of control activity bd-II” value ([3]; listed as AD7-1*) was 1.71 ± 0.48%.
With CCCCCCCCCCc1c(C)c(=O)c2ccccc2n1O [AC1-10] the remaining activity at 250 µM [1] was 1.39 ± 0.19%, the Ki [1] was 0.082 ± 0.011 µM and the remaining activity at 250 µM [2] was 0.626 ± 0.08%. The Ki [4] was 0.28 µM and the Ki [5] was 0.013 µM.
In the case of CCCCCCCCCCCc1c(CC)c(=O)c2ccccc2n1O [AC2-11], the remaining activity at 250 µM [1] is reported as 1.09 ± 0.09%, the Ki [1] is reported as 0.034 ± 0.006 µM and the remaining activity at 250 µM [2] is reported as 0.445 ± 0.08%. For the same compound, the Ki [2] was 0.031 ± 0.006 µM, the Ki [4] was 0.44 µM and the Ki [5] was 0.046 µM. It also gave a remaining activity at 250 µM [3] of 0.73 ± 0.21%.
With CCCCCCCCCCCc1c(CCCC)c(=O)c2ccccc2n1O [AC4-11] the remaining activity at 250 µM [1] was 1.19 ± 0.42%, the Ki [1] was 0.106 ± 0.013 µM and the remaining activity at 250 µM [2] was 0.863 ± 0.29%. The Ki [4] was 0.34 µM, the Ki [5] was 0.144 µM and the remaining activity at 250 µM [3] was 2.14 ± 0.35%.
In the case of CCCCCCCCCCCc1cc(=O)c2ccccc2[nH]1 [AD0-11], the remaining activity at 250 µM [1] is reported as greater than 30%, the “Rest activity in % of control activity bo3” value [2] is reported as 23.3 ± 2.3% and the remaining activity at 250 µM [2] is reported as 23%. It also gave a remaining activity at 250 µM [3] of 8.4 ± 0.36%.
For CCCCCCCCCCCc1[nH]c2ccccc2c(=O)c1CCC [AD3-11], the remaining activity at 250 µM [1] was 0.453 ± 0.28%, the “fold higher inhibitory potential compared to AD0-11” value ([1]; cytochrome bd-I) was 188 fold and the “ratio Ki^app-bo3 vs. Ki^app-bd-I” value ([1]; selectivity bd-I over bo3) was “around 300”. It also gave an inhibition at 250 µM ([2]; at 250 µM, read-out: inhibitory effect on cytochrome bo3) of roughly 50%, a remaining activity at 250 µM [2] of 47.1 ± 7% and a Ki [2] greater than 100 µM. It also gave a remaining activity at 250 µM [3] of 1.45 ± 0.18%.
CCCCc1c(C)[nH]c2ccccc2c1=O [AD4-1] showed a remaining activity at 250 µM [1] of 5.8 ± 0.39%, a remaining activity at 250 µM [2] of 69.7 ± 4.3% and a remaining activity at 250 µM [3] of 1.33 ± 0.26%.
Compound CCCCCc1c(C)[nH]c2ccccc2c1=O [AD5-1] has a remaining activity at 250 µM [1] of 4 ± 0.13%, a remaining activity at 250 µM [2] of 70.4 ± 1.5% and a remaining activity at 250 µM [3] of 1.85 ± 0.18%.
With O=c1c2c([nH]c3ccccc13)CCCCC2 [AD5-cyclo] the “Rest activity in % of control activity bd-I” value [1] was 5.67 ± 1.14%, the remaining activity at 250 µM [1] was less than 10% and the remaining activity at 250 µM [2] was 70.5 ± 2.6%. For the same compound, the “Rest activity in % of control activity bd-II” value [3] was 1.51 ± 0.15%.
For CCCCCCc1c(C)[nH]c2ccccc2c1=O [AD6-1], the remaining activity at 250 µM [1] was 3.45 ± 0.19%, the remaining activity at 250 µM [2] was 73.2 ± 1.7% and the remaining activity at 250 µM [3] was 1.3 ± 0.17%.
With CCCCCCCc1c(CC)[nH]c2ccccc2c1=O [AD7-2] the remaining activity at 250 µM [1] was 1.89 ± 1.8%, the “Ki^app fold lower compared to AD4-1” value ([1]; cytochrome bd-I) was 45 fold and the remaining activity at 250 µM [2] was 33.3 ± 1.4%. The remaining activity at 250 µM [3] was 1.4 ± 0.49%.
With CCCCCCCCc1c(C)[nH]c2ccccc2c1=O [AD8-1] the remaining activity at 250 µM [1] was 3.59 ± 0.11%, the “increase of Ki^app value compared to AD7-2” value ([1]; cytochrome bd-I) was “sixfold” and the remaining activity at 250 µM [2] was 94.6 ± 3.6%. It also gave a remaining activity at 250 µM [3] of 1.36 ± 0.21%.
For CCCCCCCCCCCc1cc(=O)c2ccccc2[nH]1 [AD11-0, 2-undecylquinolone], the pIC50 [6] is listed as 6.66.
In the case of CC(C)=CCC/C(C)=C/CC/C(C)=C/Cc1c(C)n(O)c2ccccc2c1=O [AurC, Aurachin C], the minimum inhibitory concentration [7] is given as 0.15 µg/mL (≈ 0.395 µM).
For CC(C)=CCC/C(C)=C/CC/C(C)=C/Cc1c(C)[nH]c2ccccc2c1=O [AurD, Aurachin D], the minimum inhibitory concentration [7] is given as 0.15 µg/mL (≈ 0.413 µM), the remaining activity at 250 µM [1] is given as 3.93 ± 0.64% and the “Rest activity in % of control activity bo3” value [2] is given as 29.9 ± 2.4%. It also gave a remaining activity at 250 µM [2] of 30%, a Ki [2] greater than 10 µM and a remaining activity at 250 µM [3] of 1.62 ± 0.19%. The “mitochondrial membrane potential reduced to” value [8] was 50–80% and the antibacterial effect [9] was “moderate antibacterial effect”.
In the case of Cc1cc(O)c2ccccc2n1 [Compound 2-MQ, 2-methyl-4-quinolinol, reference compound], the remaining activity at 250 µM [1] is reported as greater than 30%, the remaining activity at 250 µM [2] is reported as 64.2 ± 2.6% and the remaining activity at 250 µM [3] is reported as 17.8 ± 0.55%.
Work on COc1ccc2[nH]c3c(c(=O)c2c1)CCCC3 [Compound 7-MTHA, 7-methoxy-1,3,4,10-tetrahydro-9(2H)-acridinone, reference compound] yielded a remaining activity at 250 µM [1] of 35.7 ± 5.7%, a remaining activity at 250 µM [2] of 69.3 ± 1.7% and a remaining activity at 250 µM [3] of 9.6 ± 0.16%.
In the case of CCCCCCCc1cc(O)c2ccccc2[n+]1[O-] [HQNO, 2-heptyl-4-quinolinol 1-oxide, reference compound], the remaining activity at 250 µM [1] is reported as 7.29 ± 0.45%, the Ki [1] is reported as 3.6 ± 0.5 µM and the remaining activity at 250 µM [2] is reported as 4.53 ± 0.58%. The Ki [2] was 2.6 ± 0.4 µM and the remaining activity at 250 µM [3] was 6.44 ± 1.3%.
